pIC50: −log10 of the molar value. “And” between values parts separate entries of the source, which are not always exact repeats. Equal values may be shown once. Read-outs that look alike come from different tables or passages of the source.
What was measured:
[1] = test system: MM.1S cells
[2] = test system: RPMI-8226 cells; experiment: Anti-proliferation assay (ATPLite, 72 h), RPMI-8226; assay type: cell-based
[3] = test system: MM.1S cells; experiment: Anti-proliferation assay (ATPLite, 72 h), MM.1S; settings: for activity and synergy in antiproliferation assays: RPMI-8226, H929, MM.1S and MM.1R MM cell lines; for pIC50: 2-fold dilutions; for synergy score: in combination with CGS-21680, MM.1S
[4] = test system: GA-10 (Burkitt's lymphoma) cells; experiment: Anti-proliferation assay (ATPLite, 72 h), GA-10; assay type: cell-based; settings: x dexamethasone
[5] = test system: H929 cells; experiment: Anti-proliferation assay (ATPLite, 72 h), H929; assay type: cell-based
[6] = test system: Farage (non-Hodgkin's B cell lymphoma) cells; experiment: Anti-proliferation assay (ATPLite, 72 h), Farage; assay type: cell-based; settings: x dexamethasone
[7] = test system: SU-DHL6 DLBCL cells; experiment: Anti-proliferation assay (ATPLite, 72 h), SU-DHL6; assay type: cell-based; settings: in combination with CGS-21680
[8] = test system: Karpas 422 DLBCL cells; experiment: Anti-proliferation assay (ATPLite, 72 h), Karpas 422; assay type: cell-based; settings: in combination with CGS-21680
[9] = test system: OCI-ly10 DLBCL cells; experiment: Anti-proliferation assay (ATPLite, 72 h), OCI-ly10; assay type: cell-based; settings: in combination with CGS-21680
[10] = test system: mantle cell lymphoma cell line Mino; experiment: Anti-proliferation assay (ATPLite, 72 h), Mino; assay type: cell-based, human
Experimental: (§1) All of the cell lines were cultured in RPMI-1640 media supplemented with 10% FBS except OCI Ly10 cells (IMDM media supplemented with 20% human serum). The ANBL-6 cell line culture media also contained 10 ng/ml IL-6. MM.1S, MM.1R, SU-DHL6, Karpas 422, and OCI ly10 cells were provided by the Dana Farber Cancer Institute. ANBL-6 cells were provided by Bob Orlowsli (M.D. Anderson Cancer Research Center). H929, RPMI-8226, GA-10, Farage, Mino, JVM-13, Pfeiffer, Toledo, and Kusami-1 cells were from ATCC (Cat #'s CCL-155, CRL-9068, CRL-2392 CRL-2630, CRL-3000, CRL-3003, CRL-2632, CRL-2631, and CRL-2724 respectively). MOLP-8, OPM2, EJM, and KSM-12-PE cells were from DSMZ.
(§2) Compounds were prepared in DMSO at 1000× the highest desired concentration. Master plates were generated consisting of serially diluted compounds in 2- or 3-fold dilutions in 384-well format. For single agent dose response curves, the master plates consisted of 9 individual compounds at 12 concentrations in 2- or 3-fold dilutions. For combination matrices, master plates consisted of individual compounds at 6 or 9 concentrations at 2- or 3-fold dilutions.
(§3) The average untreated well value (avg. untreated wells) is the arithmetic mean of 40 wells from the same assay plate treated with vehicle alone. Negative inhibition values result from local variations in treated wells as compared to untreated wells.
(§4) The uncertainty of each fitted parameter was estimated from the range over which the change in reduced chi-squared was less than one, or less than minimum reduced chi-squared if that minimum exceeded one, to allow for underestimated σI errors.
(§5) Single agent curve data were used to define a dilution series for each compound to, be used for combination screening in a 6×6 matrix format. […] For compounds with no detectable single agent activity, a dilution factor of 4 was used, starting from the highest achievable concentration.
(§6) The Loewe additivity model was used to quantify combination effects. Combinations were ranked initially by Additivity Excess Volume, which is defined as ADD Volume=ΣCX, CY(Idata−ILoewe). where ILoewe(CX,CY) is the inhibition that satisfies (CX/ECX)+(CY/ECY)=1, and ECX,Y are the effective concentrations at ILoewe for the single agent curves. A “Synergy Score” was also used, where the Synergy Score S=log fX log fY ΣIdata (Idata−ILoewe), summed over all non-single-agent concentration pairs, and where log fX,Y is the natural logarithm of the dilution factors used for each single agent.

[11] = test system: mantle cell lymphoma cell line JVM-13; experiment: Anti-proliferation assay (ATPLite, 72 h), JVM-13; assay type: cell-based, human
Experimental: as §1, §2, §3, §4, §5, §6

[12] = test system: OPM2 cells; experiment: Anti-proliferation assay (ATPLite, 72 h), OPM2; assay type: cell-based, human; settings: for synergy score: in combination with CGS-21680, OPM-8
[13] = test system: EJM cells; experiment: Anti-proliferation assay (ATPLite, 72 h), EJM; assay type: cell-based; settings: in combination with CGS-21680
[14] = test system: KSM-12-PE cells; experiment: Anti-proliferation assay (ATPLite, 72 h), KSM-12-PE; assay type: cell-based; settings: in combination with CGS-21680; KSM-12-PE
[15] = test system: MOLP-8 cells; experiment: Anti-proliferation assay (ATPLite, 72 h), MOLP-8; assay type: cell-based; settings: in combination with CGS-21680
[16] = test system: ANBL-6 cells; experiment: Anti-proliferation assay (ATPLite, 72 h), ANBL-6; assay type: cell-based; settings: in combination with CGS-21680
[17] = read-out: IC50 (+IL-6), MM.1S cells grown in presence of 10 ng/ml IL-6
[18] = read-out: IC50 (no IL-6), MM.1S cells grown in absence of IL-6
[19] = combination with dexamethasone, Loewe-based Synergy Score, 72 h
[20] = Homo sapiens, MM1.S, read-out: percent inhibition of cell proliferation

OC[C@H]1O[C@H](n2cnc3c(NC4CC5CCC4C5)ncnc32)[C@H](O)[C@@H]1O (stereo partly drawn) [(S)-ENBA, S-N^6-(2-endo-norbornyl)adenosine]
Percent inhibition of cell growth by (S)-ENBA ([1]; (s)-ENBA 0.17 μM, 78 nM SCH58261): 4.5%
Percent inhibition of cell growth by (S)-ENBA ([1]; (s)-ENBA 0.17 μM, 175 nM MRS1754): 9.3%
Percent inhibition of cell growth by (S)-ENBA ([1]; (s)-ENBA 0.17 μM, 178 nM DPCPX): 2.4%
Percent inhibition of cell growth by (S)-ENBA ([1]; (s)-ENBA 0.17 μM, 183 nM MRS1523): 10%
Percent inhibition of cell growth by (S)-ENBA ([1]; (s)-ENBA 0.17 μM, no antagonist): 6%
Percent inhibition of cell growth by (S)-ENBA ([1]; (s)-ENBA 0.52 μM, 78 nM SCH58261): 6%
Percent inhibition of cell growth by (S)-ENBA ([1]; (s)-ENBA 0.52 μM, 175 nM MRS1754): 10%
Percent inhibition of cell growth by (S)-ENBA ([1]; (s)-ENBA 0.52 μM, 178 nM DPCPX): 18%
Percent inhibition of cell growth by (S)-ENBA ([1]; (s)-ENBA 0.52 μM, 183 nM MRS1523): 14%
Percent inhibition of cell growth by (S)-ENBA ([1]; (s)-ENBA 0.52 μM, no antagonist): 19%
Percent inhibition of cell growth by (S)-ENBA ([1]; (s)-ENBA 1.6 μM, 78 nM SCH58261): 14%
Percent inhibition of cell growth by (S)-ENBA ([1]; (s)-ENBA 1.6 μM, 175 nM MRS1754): 50%
Percent inhibition of cell growth by (S)-ENBA ([1]; (s)-ENBA 1.6 μM, 178 nM DPCPX): 37%
Percent inhibition of cell growth by (S)-ENBA ([1]; (s)-ENBA 1.6 μM, 183 nM MRS1523): 36%
Percent inhibition of cell growth by (S)-ENBA ([1]; (s)-ENBA 1.6 μM, no antagonist): 41%
Percent inhibition of cell growth by (S)-ENBA ([1]; (s)-ENBA 4.7 μM, 78 nM SCH58261): 12%
Percent inhibition of cell growth by (S)-ENBA ([1]; (s)-ENBA 4.7 μM, 175 nM MRS1754): 47%
Percent inhibition of cell growth by (S)-ENBA ([1]; (s)-ENBA 4.7 μM, 178 nM DPCPX): 77%
Percent inhibition of cell growth by (S)-ENBA ([1]; (s)-ENBA 4.7 μM, 183 nM MRS1523): 52%
Percent inhibition of cell growth by (S)-ENBA ([1]; (s)-ENBA 4.7 μM, no antagonist): 52%
Percent inhibition of cell growth by (S)-ENBA ([1]; (s)-ENBA 14 μM, 78 nM SCH58261): 45%
Percent inhibition of cell growth by (S)-ENBA ([1]; (s)-ENBA 14 μM, 175 nM MRS1754): 71%
Percent inhibition of cell growth by (S)-ENBA ([1]; (s)-ENBA 14 μM, 178 nM DPCPX): 89%
Percent inhibition of cell growth by (S)-ENBA ([1]; (s)-ENBA 14 μM, 183 nM MRS1523): 65%
Percent inhibition of cell growth by (S)-ENBA ([1]; (s)-ENBA 14 μM, no antagonist): 68%
Synergy score with dexamethasone, RPMI-8226 [2]: 8.64
Synergy score with dexamethasone, MM.1S [3]: 7.30
percent inhibition of cell proliferation ([3]; (S)-ENBA 0.173 μM alone): 14%
percent inhibition of cell proliferation ([3]; (S)-ENBA 0.519 μM alone): 14%
percent inhibition of cell proliferation ([3]; (S)-ENBA 1.56 μM alone): 50%
percent inhibition of cell proliferation ([3]; (S)-ENBA 4.67 μM alone): 49%
percent inhibition of cell proliferation ([3]; (S)-ENBA 14 μM alone): 62%
activity and synergy in antiproliferation assays [3]: active and synergistic
pIC50 [3, 17]: 5.82
pIC50 [3, 18]: 5.64
synergy score [4]: 1.05
Synergy score with dexamethasone, H929 [5]: 7.82
synergy score [6]: 1.37

Cn1c2ccccc2c2c3c(c4c5ccccc5n(CCC#N)c4c21)CNC3=O [Go 6976]
synergy score [7]: 3.69
synergy score [8]: 2.91
synergy score [9]: 1.61

CCCCC#Cc1nc(N)c2ncn([C@@H]3O[C@H](C(=O)NCC)[C@@H](O)[C@H]3O)c2n1 [HE-NECA, hexynyladenosine-5′-N-ethylcarboxamide]
percent inhibition of cell proliferation ([10]; HE-NECA 2.5 nM alone): 7.9% and 4.1%
percent inhibition of cell proliferation ([10]; HE-NECA 5 nM alone): 12%
percent inhibition of cell proliferation ([10]; HE-NECA 10 nM alone): 10% and 4.7%
percent inhibition of cell proliferation ([11]; HE-NECA 2.5 nM alone): −0.9%
percent inhibition of cell proliferation ([11]; HE-NECA 5 nM alone): −1.5%
percent inhibition of cell proliferation ([11]; HE-NECA 10 nM alone): 2.1%
percent inhibition of cell proliferation ([11]; HE-NECA 20 nM alone): −9.7%
percent inhibition of cell proliferation ([12]; HE-NECA 2.5 nM alone): 1%
percent inhibition of cell proliferation ([12]; HE-NECA 5 nM alone): 2.6%
percent inhibition of cell proliferation ([12]; HE-NECA 10 nM alone): 0.4%
percent inhibition of cell proliferation ([12]; HE-NECA 20 nM alone): 4.8%
Synergy score with dexamethasone, RPMI-8226 [2]: 17.7
Synergy score with dexamethasone, MM.1S [3]: 8.94
percent inhibition of cell proliferation [3]: 46% and 31%
percent inhibition of cell proliferation ([3]; HE-NECA 0.181 nM alone): −0.91%
percent inhibition of cell proliferation ([3]; HE-NECA 0.363 nM alone): 9.2%
percent inhibition of cell proliferation ([3]; HE-NECA 0.725 nM alone): 11%
percent inhibition of cell proliferation ([3]; HE-NECA 2.9 nM alone): 35%
percent inhibition of cell proliferation ([3]; HE-NECA 5.8 nM alone): 42%
percent inhibition of cell proliferation ([3]; HE-NECA 23.2 nM alone): 51%
activity and synergy in antiproliferation assays [3]: active and synergistic
pIC50 [3, 17]: 9.06
pIC50 [3, 18]: 8.19
synergy score [4]: 1.64
Synergy score with dexamethasone, H929 [5]: 7.62
synergy score [6]: 3.6

COc1cc2c(cc1OC)-c1cc(=Nc3c(C)cc(C)cc3C)n(C)c(=O)n1CC2 [Trequinsin, 2,3,6,7-tetrahydro-9,10-dimethoxy-3-methyl-2-((2,4,6-trimethylphenyl)imino)-4H-pyrimido(6,1-a)isoquinolin-4-one]
synergy score [13]: 4.81
synergy score [14]: 2.44
synergy score [12]: 4.74
synergy score [7]: 0.92
synergy score [8]: 2.11
Synergy score with dexamethasone, RPMI-8226 [2, 19]: 5.76
synergy score [15]: 4.7
inhibition at 0.00462 µM [3, 20]: 10%
inhibition at 0.0139 µM [3, 20]: 1.4%
inhibition at 0.0416 µM [3, 20]: 5.5%
inhibition at 0.374 µM [3, 20]: -1.6%
inhibition at 1.12 µM [3, 20]: -6.1%
inhibition at 3.37 µM [3, 20]: 11%
inhibition at 10.1 µM [3, 20]: 33%
Synergy score with dexamethasone, MM.1S [3, 19]: 3.21
synergy score [3]: 6.71
synergy score [16]: 4.55
Synergy score with dexamethasone, H929 [5, 19]: 2.68
synergy score [9]: 1.64

O=C(Nc1c(Cl)cncc1Cl)c1ccc(OC(F)F)c(OCC2CC2)c1 [roflumilast]
synergy score [13]: 1.06
synergy score [14]: 0.27
synergy score [12]: 0.29
synergy score [7]: 0.93
synergy score [8]: 3.38
synergy score [15]: 3.44
synergy score [3]: 2.54
synergy score [16]: 3.73
synergy score [9]: 3.32

— patent publication US20090053168A1, “TREATMENTS OF B-CELL PROLIFERATIVE DISORDERS” (priority 2007, published 2009)
